From patent US9169260B2 (MERCK SHARP & DOHME CORP., priority 2011, dated 2015)

Biological target: GST tagged IRAK-4 (Homo sapiens (Human), UniProt Q9NWZ3)
Assay: IRAK-4 Kinase Assay (IMAP fluorescence polarization)
Format: biochemical
Details: 100 μM ATP, 30 minutes at 25° C.
Description: The kinase activity of IRAK-4 is determined by its ability to catalyze the phosphorylation of a fluorescent polypeptide substrate. The extent of phosphorylation is measured using the IMAP technology (Molecular Devices) where the phosphorylated fluorescent substrate binds to the large M(III)-based nanoparticles which reduces the rotational speed of the substrate and thus increases its fluorescent polarization (FP).
20 μl reaction mixture contains 10 mM TriHCl, pH 7.2, 0.5 nM GST tagged IRAK-4 (SignalChem), 100 nM fluorescent peptide substrate (RP7030, Molecular Devices), 100 μM ATP, 1 mM DTT, 1 mM MgCl2, and 0.01% Tween 20. The reaction is initiated by the addition of ATP. After incubation for 30 minutes at 25° C., 60 μl of Progressive IMAP Reagent (Molecular Devices) is added to stop the reaction. Change in RP7030's FP is determined by a FP reader (Analyst HT, LH, BioSystems).

Chain of GST tagged IRAK-4 (Q9NWZ3 whole entry): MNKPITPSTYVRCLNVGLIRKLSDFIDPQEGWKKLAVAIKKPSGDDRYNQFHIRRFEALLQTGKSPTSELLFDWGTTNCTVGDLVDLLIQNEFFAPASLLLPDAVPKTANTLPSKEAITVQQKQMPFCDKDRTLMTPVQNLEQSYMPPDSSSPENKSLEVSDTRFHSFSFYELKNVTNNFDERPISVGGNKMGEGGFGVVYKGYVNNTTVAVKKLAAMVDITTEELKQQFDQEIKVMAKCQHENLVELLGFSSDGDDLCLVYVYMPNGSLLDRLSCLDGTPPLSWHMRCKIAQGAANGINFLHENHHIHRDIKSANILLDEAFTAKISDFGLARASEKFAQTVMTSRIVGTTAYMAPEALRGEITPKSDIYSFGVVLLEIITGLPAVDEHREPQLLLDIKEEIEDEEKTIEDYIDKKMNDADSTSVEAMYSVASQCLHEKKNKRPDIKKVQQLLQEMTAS

Row | IC50 [µM] | SMILES
1 | < 0.1 | Cc1ccc(-n2nc(C3CCC(=O)CC3)cc2NC(=O)c2cnn3cccnc23)cc1 [Example 1, N-(3-(4-oxocyclohexyl)-1-p-tolyl-1H-pyrazol-5-yl)pyrazolo[1,5-a]pyrimidine-3-carboxamide]
2 | < 0.1 | Cc1ccc(-n2nc(C3CCNCC3)cc2NC(=O)c2cnn3cccnc23)cc1 [Example 7, N-(3-(piperidin-4-yl)-1-(p-tolyl)-1H-pyrazol-5-yl)pyrazolo[1,5-a]pyrimidine-3-carboxamide]
3 | < 0.1 | COc1ccc(-n2nc(C3CCN(S(C)(=O)=O)CC3)cc2NC(=O)c2cnn3cccnc23)cc1 [Example 16, N-(1-(4-methoxyphenyl)-3-(1-(methylsulfonyl)piperidin-4-yl)-1H-pyrazol-5-yl)pyrazolo[1,5-a]pyrimidine-3-carboxamide]
4 | < 0.1 | Cc1ccc(-n2nc(C3CCN(S(C)(=O)=O)CC3)cc2NC(=O)c2cnn3cccnc23)cc1 [Example 18, N-(3-(1-(methylsulfonyl)piperidin-4-yl)-1-(p-tolyl)-1H-pyrazol-5-yl)pyrazolo[1,5-a]pyrimidine-3-carboxamide]
5 | < 0.1 | COc1ccc(-n2nc(C3CCN(S(=O)(=O)C(C)C)CC3)cc2NC(=O)c2cnn3cccnc23)cc1 [Example 23, N-(3-(1-(isopropylsulfonyl)piperidin-4-yl)-1-(4-methoxyphenyl)-1H-pyrazol-5-yl)pyrazolo[1,5-a]pyrimidine-3-carboxamide]
6 | < 0.1 | COc1ccc(-n2nc(C3CCN(S(=O)(=O)C4CC4)CC3)cc2NC(=O)c2cnn3cccnc23)cc1 [Example 24, N-(3-(1-(cyclopropylsulfonyl)piperidin-4-yl)-1-(4-methoxyphenyl)-1H-pyrazol-5-yl)pyrazolo[1,5-a]pyrimidine-3-carboxamide]
7 | < 0.1 | CNS(=O)(=O)c1ccc(-c2cc(NC(=O)c3cnn4cccnc34)n(-c3ccc(F)cc3F)n2)cc1 [Example 34, N-(1-(2,4-difluorophenyl)-3-(4-(N-methylsulfamoyl)phenyl)-1H-pyrazol-5-yl)pyrazolo[1,5-a]pyrimidine-3-carboxamide]

Same assay, conditions: 100 μM ATP, 30 minutes at 25° C.; μM

Row | SMILES | IC50 [µM]
8 | Cc1ccc(-n2nc(C3CCC(=NO)CC3)cc2NC(=O)c2cnn3cccnc23)cc1 (stereo not drawn) [Example 2, N-(3-(4-(hydroxyimino)cyclohexyl)-1-(p-tolyl)-1H-pyrazol-5-yl)pyrazolo[1,5-a]pyrimidine-3-carboxamide] | < 1
9 | CON=C1CCC(c2cc(NC(=O)c3cnn4cccnc34)n(-c3ccc(C)cc3)n2)CC1 (stereo not drawn) [Example 3, N-(3-(4-(methoxyimino)cyclohexyl)-1-(p-tolyl)-1H-pyrazol-5-yl)pyrazolo[1,5-a]pyrimidine-3-carboxamide] | < 1
10 | COc1ccc(-n2nc(C3CCNCC3)cc2NC(=O)c2cnn3cccnc23)cc1 [Example 8, N-(1-(4-methoxyphenyl)-3-(piperidin-4-yl)-1H-pyrazol-5-yl)pyrazolo[1,5-a]pyrimidine-3-carboxamide] | < 1
11 | O=C(Nc1cc(C2CCNCC2)nn1-c1ccc(Cl)cc1)c1cnn2cccnc12 [Example 9, N-(1-(4-chlorophenyl)-3-(piperidin-4-yl)-1H-pyrazol-5-yl)pyrazolo[1,5-a]pyrimidine-3-carboxamide] | < 1
12 | O=C(Nc1cc(C2CCNCC2)nn1-c1ccc(F)cc1)c1cnn2cccnc12 [Example 10, N-(1-(4-fluorophenyl)-3-(piperidin-4-yl)-1H-pyrazol-5-yl)pyrazolo[1,5-a]pyrimidine-3-carboxamide] | < 1
13 | O=C(Nc1cc(C2CCNCC2)nn1-c1ccc(C(F)(F)F)cc1)c1cnn2cccnc12 [Example 11, N-(3-(piperidin-4-yl)-1-(4-(trifluoromethyl)phenyl)-1H-pyrazol-5-yl)pyrazolo[1,5-a]pyrimidine-3-carboxamide] | < 1
14 | N#Cc1ccc(-n2nc(C3CCNCC3)cc2NC(=O)c2cnn3cccnc23)cc1 [Example 12, N-(1-(4-cyanophenyl)-3-(piperidin-4-yl)-1H-pyrazol-5-yl)pyrazolo[1,5-a]pyrimidine-3-carboxamide] | > 1
15 | O=C(Nc1cc(C2CCNCC2)nn1-c1ccc(OC(F)(F)F)cc1)c1cnn2cccnc12 [Example 13, N-(3-(piperidin-4-yl)-1-(4-(trifluoromethoxy)phenyl)-1H-pyrazol-5-yl)pyrazolo[1,5-a]pyrimidine-3-carboxamide] | < 1
16 | Cc1ccccc1-n1nc(C2CCNCC2)cc1NC(=O)c1cnn2cccnc12 [Example 14, N-(3-(piperidin-4-yl)-1-(o-tolyl)-1H-pyrazol-5-yl)pyrazolo[1,5-a]pyrimidine-3-carboxamide] | > 1
17 | Cc1cccc(-n2nc(C3CCNCC3)cc2NC(=O)c2cnn3cccnc23)c1 [Example 15, N-(3-(piperidin-4-yl)-1-(m-tolyl)-1H-pyrazol-5-yl)pyrazolo[1,5-a]pyrimidine-3-carboxamide] | < 1
18 | CS(=O)(=O)N1CCC(c2cc(NC(=O)c3cnn4cccnc34)n(-c3ccc(F)cc3F)n2)CC1 [Example 28] | < 1
19 | CS(=O)(=O)N1CCC(c2cc(NC(=O)c3cnn4cccnc34)n(-c3ccc(Cl)cc3F)n2)CC1 [Example 29, N-(1-(4-chloro-2-fluorophenyl)-3-(1-(methylsulfonyl)piperidin-4-yl)-1H-pyrazol-5-yl)pyrazolo[1,5-a]pyrimidine-3-carboxamide] | < 1
20 | COC(=O)N1CCC(c2cc(NC(=O)c3cnn4cccnc34)n(-c3ccc(OC)cc3)n2)CC1 [Example 32, methyl 4-(1-(4-methoxyphenyl)-5-(pyrazolo[1,5-a]pyrimidine-3-carboxamido)-1H-pyrazol-3-yl)piperidine-1-carboxylate] | < 1

Further lines, results first:

Row | IC50 [µM] | SMILES
21 | < 1 | Cc1ccc(-n2nc(C3CCNC(=O)CC3)cc2NC(=O)c2cnn3cccnc23)cc1 (stereo not drawn) [Example 4, N-(3-(7-oxoazepan-4-yl)-1-(p-tolyl)-1H-pyrazol-5-yl)pyrazolo[1,5-a]pyrimidine-3-carboxamide]
22 | < 1 | Cc1ccc(-n2nc(C3CCC(N(C)C)CC3)cc2NC(=O)c2cnn3cccnc23)cc1 (stereo not drawn) [Example 5, N-(3-(4-(dimethylamino)cyclohexyl)-1-(p-tolyl)-1,4-pyrazol-5-yl)pyrazolo[1,5-a]pyrimidine-3-carboxamide]
23 | < 1 | Cc1ccc(-n2nc(C3CCC(O)CC3)cc2NC(=O)c2cnn3cccnc23)cc1 (stereo not drawn) [Example 6, N-(3-(4-hydroxycyclohexyl)-1-(p-tolyl)-1H-pyrazol-5-yl)pyrazolo[1,5-a]pyrimidine-3-carboxamide]
24 | < 1 | Cc1cccc(-n2nc(C3CCN(S(C)(=O)=O)CC3)cc2NC(=O)c2cnn3cccnc23)c1 [Example 17, N-(3-(1-(methylsulfonyl)piperidin-4-yl)-1-(m-tolyl)-1H-pyrazol-5-yl)pyrazolo[1,5-a]pyrimidine-3-carboxamide]
25 | < 1 | Cc1cccc(-n2nc(C3CCN(S(=O)(=O)C4CC4)CC3)cc2NC(=O)c2cnn3cccnc23)c1 [Example 21, N-(3-(1-(cyclopropylsulfonyl)piperidin-4-yl)-1-(m-tolyl)-1H-pyrazol-5-yl)pyrazolo[1,5-a]pyrimidine-3-carboxamide]
26 | < 1 | O=C(Nc1cc(C2CCN(S(=O)(=O)C3CC3)CC2)nn1-c1ccc(F)cc1)c1cnn2cccnc12 [Example 22, N-(3-(1-(cyclopropylsulfonyl)piperidin-4-yl)-1-(4-fluorophenyl)-1H-pyrazol-5-yl)pyrazolo[1,5-a]pyrimidine-3-carboxamide]
27 | < 1 | Cc1ccc(-n2nc(C3CCN(S(=O)(=O)C4CCCC4)CC3)cc2NC(=O)c2cnn3cccnc23)cc1 [Example 25, N-(3-(1-(cyclopentylsulfonyl)piperidin-4-yl)-1-(p-tolyl)-1H-pyrazol-5-yl)pyrazolo[1,5-a]pyrimidine-3-carboxamide]
28 | < 1 | Cc1ccc(-n2nc(C3CCN(S(=O)(=O)C4CC4)CC3)cc2NC(=O)c2cnn3cccnc23)cc1 [Example 26, N-(3-(1-(cyclopropylsulfonyl)piperidin-4-yl)-1-(p-tolyl)-1H-pyrazol-5-yl)pyrazolo[1,5-a]pyrimidine-3-carboxamide]
29 | > 1 | O=C(Nc1cc(C2CCN(S(=O)(=O)C3CC3)CC2)nn1-c1ccc(OC(F)(F)F)cc1)c1cnn2cccnc12 [Example 27, N-(3-(1-(cyclopropylsulfonyl)piperidin-4-yl)-1-(4-(trifluoromethoxy)phenyl)-1H-pyrazol-5-yl)pyrazolo[1,5-a]pyrimidine-3-carboxamide]
30 | > 1 | COc1ccc(-n2nc(C3CCN(S(=O)(=O)C(F)(F)F)CC3)cc2NC(=O)c2cnn3cccnc23)cc1 [Example 30, N-(1-(4-methoxyphenyl)-3-(1-((trifluoromethyl)sulfonyl)piperidin-4-yl)-1H-pyrazol-5-yl)pyrazolo[1,5-a]pyrimidine-3-carboxamide]
31 | < 1 | CC(=O)N1CCC(c2cc(NC(=O)c3cnn4cccnc34)n(-c3ccc(C)cc3)n2)CC1 [Example 31, N-(3-(1-acetylpiperidin-4-yl)-1-(p-tolyl)-1H-pyrazol-5-yl)pyrazolo[1,5-a]pyrimidine-3-carboxamide]
32 | < 1 | COc1ccc(-n2nc(C3CCN(C(=O)C4CC4)CC3)cc2NC(=O)c2cnn3cccnc23)cc1 [Example 33, N-(3-(1-(cyclopropanecarbonyl)piperidin-4-yl)-1-(4-methoxyphenyl)-1H-pyrazol-5-yl)pyrazolo[1,5-a]pyrimidine-3-carboxamide]
33 | < 1 | Cc1ccc(-n2nc(C3CCN(C(N)=O)CC3)cc2NC(=O)c2cnn3cccnc23)cc1 [Example 35, N-(3-(1-carbamoylpiperidin-4-yl)-1-(p-tolyl)-1H-pyrazol-5-yl)pyrazolo[1,5-a]pyrimidine-3-carboxamide]
